The subject of one assay is Bacteria. The experiment in a line: in vitro antibacterial activity, serial dilution, stated for the bacteria as a whole. In kind it is cell-based. The following applies: at the highest concentrations tested (62.5-500 mcg/ml). As for the experimental part: (§1) The in vitro antibacterial activity of the compounds of the invention was determined by conventional serial dilution procedures. Bacterial cultures were grown in tryptose phosphate broth or brain heart infusion broth (containing heat-inactivated normal horse serum for tests with S. pyogenes) overnight at 37° C. and subsequently diluted in double strength broth to provide bacterial inocula of about 2×10^5 cells/ml. Aqueous solutions of the compounds of Formula I where R" is hydrogen were prepared by dissolving the free acid form in 0.5N sodium hydroxide. The solutions were diluted with sterile distilled water to 1000 mcg/ml of compound in terms of the free acid. Serial two-fold dilutions of the compound stock solutions were prepared in water and 0.5 ml of each dilution was transferred to sets of tubes, one set for each bacterial inoculum. Each tube was then inoculated with 0.5 ml of the appropriate culture, resulting in a final bacterial concentration of about 1×10^5 cells/ml. The minimal inhibitory concentration (MIC), defined as the lowest concentration of the test compound to inhibit visible bacterial growth, was recorded after 18-20 hours of static incubation at 37° C. The results are recorded in Table I:
These are intermediates for the compounds of Examples 5 and 7.

For assay [1], the system named is Escherichia coli Vogel. Nature of the assay: in vivo antibacterial activity in infected female mice (E. coli). The following applies: sc, 168 h, E. coli i.p. infection, medicated once s.c. one-half hour post infection, deaths recorded for seven days, read-out: Protective Dose (PD50). As for the experimental part:
(§2) The in vivo antibacterial activity of the compounds of the invention was determined in female mice, 18-20 grams each, by the following procedure:
(§3) Aqueous solutions of the compounds of Formula I where R" is hydrogen were prepared by dissolving the free acid form in dilute sodium hydroxide and diluting the solution with distilled water to the desired volume.
(§4) Cultures of Escherichia coli Vogel prepared in brain heart infusion broth, and cultures of Klebsiella pneumoniae 39645 grown in tryptose phosphate broth with 5% rabbit serum diluted in the same broth were used to infect the mice as follows:
E coli: mice were inoculated intraperitoneally with 0.5 ml of the bacerial test inoculum (1.87×10^7 and 5×10^6 cells/ml respectively).
Mice infected with E. coli were medicated once (0.5 ml) one-half hour post infection, the test compound being administered by the subcutaneous (s.c.) route. Deaths were recorded daily for seven days.
(§5) Groups of ten animals each for four or five dose levels were thus treated and the number of survivors in each group recorded. The fifty percent protective dose values (PD50) were then calculated.

Assay [2] has as its system Klebsiella pneumoniae 39645. The experiment in a line: in vivo antibacterial activity in infected female mice (K. pneumoniae). The following applies: Klebsiella pneumoniae, 39645, sc, 336 h, K. pneumoniae i.m. infection, s.c. 17 h and 1 h preinfection, 6 h postinfection, twice a day for next three days, deaths recorded for fourteen days, read-out: Protective Dose (PD50). The protocol: as §2, §3, §4
K. pneumoniae: mice were inoculated intramuscularly in the right hind leg with 0.2 ml of the bacterial test inoculum (2.05×10^4 cells/ml).
Mice infected with K. pneumoniae were medicated at the following times: seventeen hours and one hour preinfection, six hours postinfection and twice a day for the next three days. The test compound was administered the subcutaneous (0.2 ml) route. Deaths were recorded daily for fourteen days.
as §5

The test system of assay [3] is Escherichia coli Vogel. Nature of the assay: in vitro antibacterial activity, serial dilution (MIC). In kind it is cell-based. The following applies: 18-20 hours at 37° C., about 1×10^5 cells/ml, read-out: Minimal Inhibitory Concentration. As for the experimental part:
as §1, with “C.” for “C. The results are recorded in Table I:”

Assay [4] concerns Klebsiella pneumoniae 39645. The description is as above. In kind it is cell-based. The following applies: 18-20 hours at 37° C., about 1×10^5 cells/ml, read-out: Minimal Inhibitory Concentration. As for the experimental part: as §1, with “C.” for “C. The results are recorded in Table I:”
In another assay the test system is Proteus mirabilis MGH-1. The description is as above. In kind it is cell-based. The settings on record: MGH1, 18-20 hours at 37° C., about 1×10^5 cells/ml, read-out: Minimal Inhibitory Concentration. As for the experimental part:
as §1, with “C.” for “C. The results are recorded in Table I:”

In the next assay the test system is Proteus vulgaris 9920. The description is as above. In kind it is cell-based. The following applies: 18-20 hours at 37° C., about 1×10^5 cells/ml, read-out: Minimal Inhibitory Concentration. The protocol: as §1, with “C.” for “C. The results are recorded in Table I:”
The subject of assay [5] is Pseudomonas aeruginosa MGH-2. The assay is described as above. It is filed as cell-based. The settings on record: MGH2, 18-20 hours at 37° C., about 1×10^5 cells/ml, read-out: Minimal Inhibitory Concentration. The protocol:
as §1, with “C.” for “C. The results are recorded in Table I:”

The test system of assay [6] is Staphylococcus aureus Smith. The assay is described as above. In kind it is cell-based. The following applies: 18-20 hours at 37° C., about 1×10^5 cells/ml, read-out: Minimal Inhibitory Concentration. The protocol:
as §1, with “C.” for “C. The results are recorded in Table I:”

For assay [7], the system named is Streptococcus pyogenes C203. Described as above. In kind it is cell-based. The following applies: broth containing heat-inactivated normal horse serum, 18-20 hours at 37° C., about 1×10^5 cells/ml, read-out: Minimal Inhibitory Concentration. The protocol:
as §1, with “C.” for “C. The results are recorded in Table I:”

SMILES strings stand for the structures. Converted amounts (≈) assume the structure as drawn. Bounds are passed on as bounds.

`CCOC(=O)c1cn(N(C=O)CC)c2nc(C)ccc2c1=O` [Example 6, Ethyl 1-(N-formylethylamino)-1,4-dihydro-7-methyl-4-oxo-1,8-naphthyridine-3-carboxylate]: in the assay with Bacteria, the “in vitro antibacterial activity” value is “inactive”. The ED50 in the assay on Escherichia coli Vogel [1] is 53.5 mg/kg; in assay [2], greater than 200 mg/kg.

Turning to `CCOC(=O)c1cn(N(C)C=O)c2nc(C)ccc2c1=O` [Example 4, Ethyl 1-(N-formylmethylamino)-1,4-dihydro-7-methyl-4-oxo-1,8-naphthyridine-3-carboxylate], the “in vitro antibacterial activity” value with Bacteria is “inactive”.

Turning to `Cc1ccc2c(=O)c(C(=O)O)cn(N)c2n1` [Example 2, 1-Amino-1,4-dihydro-7-methyl-4-oxo-1,8-naphthyridine-3-carboxylic acid], the “in vitro antibacterial activity” value with Bacteria was “inactive”.

In the case of `CCNn1cc(C(=O)O)c(=O)c2ccc(C)nc21` [Example 7, 1-Ethylamino-1,4-dihydro-7-methyl-4-oxo-1,8-naphthyridine-3-carboxylic acid], the MIC with Escherichia coli Vogel [3] is 31.3 µg/mL (≈ 127 µM); in assay [4] it was 125 µg/mL (≈ 506 µM); with Proteus mirabilis MGH-1, 250 µg/mL (≈ 1010 µM); with Proteus vulgaris 9920, 15.6 µg/mL (≈ 63.1 µM); in [5], greater than 500 µg/mL; in [6], greater than 500 µg/mL. Moreover, the MIC in assay [7] is greater than 500 µg/mL. The ED50 in the assay with Escherichia coli Vogel [1] was 93 mg/kg; in assay [2], greater than 200 mg/kg.

For `CCOC(=O)c1cn(N)c2nc(C)ccc2c1=O` [Example 1, Ethyl 1-amino-1,4-dihydro-7-methyl-4-oxo-1,8-naphthyridine-3-carboxylate], the “in vitro antibacterial activity” value in the assay with Bacteria was “inactive”.

`CNn1cc(C(=O)O)c(=O)c2ccc(C)nc21` [Example 5, 1,4-Dihydro-7-methyl-1-methylamino-4-oxo-1,8-naphthyridine-3-carboxylic acid]: the MIC is 31.3 µg/mL (≈ 134 µM) in the assay with Escherichia coli Vogel [3]; 62.5 µg/mL (≈ 268 µM) in [4]; 62.5 µg/mL (≈ 268 µM) in the assay on Proteus mirabilis MGH-1; 62.5 µg/mL (≈ 268 µM) with Proteus vulgaris 9920; greater than 500 µg/mL in assay [5]; greater than 500 µg/mL in assay [6]. In assay [7], the MIC is greater than 500 µg/mL. The ED50 with Escherichia coli Vogel [1] was 141 mg/kg; in assay [2] it was greater than 200 mg/kg.

The values above are taken from US4517191A, “1-Amino-1,8-naphthyridine compounds useful as bactericides” (Sterling Drug Inc., priority 1983, dated 1985).
